Measured values reported in patent publication US20070089183A1, “Size and/or growth engineering by modulation of the interaction between calmodulin, and brassinosteroid biosynthetic enzymes and orthologs therof” (Washington State University, priority 2005, published 2007).
Where no end group is shown, it is not given here.

What was measured:
[1] = tested on: cM1, cM2, cM3 and the dwf1 mutant; test: exogenous application of brassinolide to dwarf plants; type: in vivo, Arabidopsis; settings: data not shown
Text: To ensure a reliable comparison of the complementary effects of normal DWF1 and the three mutants, T2 plants with similar expression levels were compared (FIG. 3b-d). […] Seeds were produced in most of the slightly shorter siliques of cM1 plants (FIG. 3b, c). […] The dwarf phenotypes of cM1, cM2, cM3 and the dwf1 mutant were rescued by exogenous application of brassinolide (data not shown).

DWF4 null mutant = test: complementation of DWF4 null mutant or overexpression, plant growth; type: in vivo, Arabidopsis
Text: For example, partial dwarf Arabidopsis plants were generated through manipulation of the DWF4 CaMBD regulatory domain.

Compound: CC(C)[C@H](C)[C@@H](O)[C@H](O)[C@@H](C)[C@H]1CC[C@H]2[C@@H]3COC(=O)[C@H]4C[C@H](O)[C@H](O)C[C@]4(C)[C@H]3CC[C@]12C [brassinolide]
- rescue of dwarf phenotypes [1]: rescued

Compound: DWF4 mutant having a L to D change at amino acid 21: DWF4 with L to D change at aa 21 within the N-terminal CaMBD (PSLLSDLLFLILLKRRNRKTRFNLP; not fully specified; listed as Arabidopsis thaliana)
- plant growth phenotype (DWF4 null mutant; complementing a DWF4 null mutant): semi-dwarf

Compound: mutant having a L to V change at amino acid 28: DWF4 with L to V change at aa 28 within the N-terminal CaMBD (PSLLSLLLFLILVKRRNRKTRFNLP; listed as Arabidopsis thaliana)
- plant growth phenotype (DWF4 null mutant; overexpression): enhanced growth
